Tests used:
IRAK4 = biological target: T1, IRAK4 (Homo sapiens, UniProt Q9NWZ3); experiment: IRAK-4 activity inhibition assay (Caliper); format: biochemical; details: 3.5 nM IRAK4, 1.5 μM Peptide 8, 37 μM ATP
T1 construct: purchased CARNA Bioscience 09-145
T1 sequence (Q9NWZ3 1-460): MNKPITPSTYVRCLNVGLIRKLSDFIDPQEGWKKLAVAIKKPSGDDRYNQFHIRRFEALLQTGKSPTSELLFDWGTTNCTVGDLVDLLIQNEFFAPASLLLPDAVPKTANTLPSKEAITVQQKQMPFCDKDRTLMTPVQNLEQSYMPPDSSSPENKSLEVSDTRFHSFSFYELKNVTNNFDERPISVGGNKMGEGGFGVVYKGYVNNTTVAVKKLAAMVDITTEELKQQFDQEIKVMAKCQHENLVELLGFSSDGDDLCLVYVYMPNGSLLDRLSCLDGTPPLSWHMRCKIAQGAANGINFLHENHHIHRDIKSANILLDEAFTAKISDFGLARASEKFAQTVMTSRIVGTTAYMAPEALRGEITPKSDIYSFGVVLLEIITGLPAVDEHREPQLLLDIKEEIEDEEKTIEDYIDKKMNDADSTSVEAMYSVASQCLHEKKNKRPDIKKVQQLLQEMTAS
Experimental: A 1x kinase base buffer was prepared from 50 mM HEPES, pH 7.5 and 0.0015% Brij-35. A stop buffer was prepared from 100 mM HEPES, pH 7.5, 0.015% Brij-35, 0.2% Coating Reagent #3, and 50 mM EDTA.
Test compound was diluted to 50× of the final desired highest inhibitor concentration in reaction by 100% DMSO. 100 ul of this compound dilution was transferred to a well in a 96-well plate. For example, if desired highest inhibitor concentration in IC50 determination is 100 uM, then prepare 5000 uM of compound DMSO solution in this step.
Test compound was serially diluted by transferring 30 μl to 60 μl of 100% DMSO in the next well and so forth for a total of 10 concentrations. 100 μl of 100% DMSO was added to two empty wells for no compound control and no enzyme control in the same 96-well plate.
A new 96-well plate was marked as intermediate plate. 5 μl of compound serial dilution was transferred from source plate to the corresponding wells of the intermediate plate. 45 μl of 1x kinase base buffer (KB buffer) was added to each well of the intermediate plate. The intermediate plate was placed for 10 min on a shaker.
5 μl of each well was transferred from the 96-well intermediate plate to a 384-well plate in duplicates. For example, A1 of the 96-well plate is transferred to A1 and A2 of the 384-well plate. A2 of the 96-well plate is transferred to A3 and A4 of the 384-well plate, and so on.
IRAK4 and DTT in 1x kinase base buffer was added. The 2.5x enzyme mix contained 8.8 nM IRAK4 and 5 mM DTT.
Peptide 8, ATP, MgCl2 and MnCl2 were added in the 1x kinase base buffer. The 2.5x peptide mix contained 3.75 μM peptide 8, 92.5 μM ATP, 12.5 mM MgCl2 and 2.5 mM MnCl2.
Assay plate already contained 5 μl of compound in 10% DMSO. Added 10 μl of 2.5x enzyme solution to each well of the 384-well assay plate, except no enzyme control wells. The final concentration of IRAK4 in reaction was 3.5 nM. Added 10 μl of 1x kinase base buffer to no enzyme control wells in the assay plate. Incubated at room temperature for 10 min.
Added 10 μl of 2.5x peptide solution to each well of the 384-well assay plate. The final concentration of Peptide 8 and ATP was 1.5 μM and 37 μM, respectively. Incubated at for 40 minutes. Added 25 μl of stop buffer to stop reaction. Collected data on Caliper.
Copied conversion % data from Caliper program. Converted conversion % values to percent inhibition values. Percent inhibition=(max−conversion %)/(max−min)*100, where “max” means the conversion % of DMSO control and “min” means the conversion % of no enzyme control.
The compound numbers correspond to the compound numbers in Table 1. Compounds having an activity designated as “A” provided an IC50≦5 μM; compounds having an activity designated as “B” provided an IC50 of 5-20 μM; compounds having an activity designated as “C” provided an IC50 of 20-50 μM; and compounds having an activity designated as “D” provided an IC50≧50 μM. “NA” stands for “not assayed.”

[1] = system: TNFα production in THP-1 cells; experiment: LPS induced TNFα production assay in THP-1 cells; format: cell-based; details: Homo sapiens, 300 ng/mL LPS, measured at 5 hours
Experimental: (§1) Provided compounds were also assayed in an LPS (Lipopolysaccharide) or R848 (TLR-7 agonist) induced cytokine (TNFα and IL8) production assay in THP-1 cells, human white blood cells (hWBC), and human whole blood. The exemplary protocol for this assay in THP-1 cells was as follows below.
(§2) THP-1 cells from ATCC (TIB-202) were cultured in RPMI Medium 1640 (Invitrogen, Cat No. A10491-01), 10% fetal bovine serum (Invitrogen, Cat No. 10099141, Lot No. 8172882) containing 100 U/mL Penicillin, 100 μg/mL streptomycin (Invitrogen, Cat No. 15140-122), and 50 uM 2-Mercaptoethanol (Invitrogen, Cat No. 21985023). LPS-EK ultra pure (Invivogen, Cat No. tlrl-peklps) was used to induce IL8 and TNFα production, that was detected in the cell culture supernatant by IL8 HTRF kit (Cisbio, Cat No. 62IL8PEB) and TNFα HTRF kit (Cisbio, Cat No. 62TNFPEB), as per manufacturer instructions. Cells were cultured in 96 well assay plates at 100,000 cells per well, and compounds diluted in final 0.3% DMSO were pre-incubated with cells for 1 hour prior to stimulation with 300 ng/mL LPS. Cytokine production in cell supernatant was measured at 5 hours for TNFα production, and at 16 hours for IL8 production and assessment of cell viability.
(§3) The compound numbers correspond to the compound numbers in Table 1. Compounds having an activity designated as “A” provided an IC50≦0.5 μM; compounds having an activity designated as “B” provided an IC50 of 0.5-5.0 μM; compounds having an activity designated as “C” provided an IC50>5.0 μM. “NA” stands for “not assayed.”

[2] = system: IL8 production in THP-1 cells; experiment: LPS induced IL8 production assay in THP-1 cells; format: cell-based; details: Homo sapiens, 300 ng/mL LPS, measured at 16 hours
Experimental: as §1, §2, §3

SMILES	IC50 (IRAK4) [nM]	IC50 [1] [nM]	IC50 [2] [nM]
Brc1ccc2ncnc(N[C@H]3CC[C@H](N4CCOCC4)CC3)c2c1 [Compound I-2, 6-bromo-N-((1r,4r)-4-morpholinocyclohexyl)quinazolin-4-amine]	≤ 5000	≤ 500	≤ 500
N#Cc1ccc2nc(Nc3cnn(C4CCOCC4)c3)nc(N[C@H]3CC[C@H](N4CCOCC4)CC3)c2c1 [Compound I-16, 4-(((1r,4r)-4-morpholinocyclohexyl)amino)-2-((1-(tetrahydro-2H-pyran-4-yl)-1H-pyrazol-4-yl)amino)quinazoline-6-carbonitrile]	≤ 5000	≤ 500	≤ 500
Cn1cc(Nc2nc(N[C@H]3CC[C@H](N4CCOCC4)CC3)c3cc(Br)ccc3n2)cn1 [Compound I-10, 6-bromo-N2-(1-methyl-1H-pyrazol-4-yl)-N4-((1r,4r)-4-morpholinocyclohexyl)quinazoline-2,4-diamine]	≤ 5000	≤ 500	≤ 500
Clc1ccc2ncnc(N[C@H]3CC[C@H](N4CCOCC4)CC3)c2c1 [Compound I-26, 6-chloro-N-((1r,4r)-4-morpholinocyclohexyl)quinazolin-4-amine]	≤ 5000	≤ 500	≤ 500
N#Cc1ccc2nc(Nc3cnn(C4CCC(O)CC4)c3)nc(N[C@H]3CC[C@H](N4CCOCC4)CC3)c2c1 (stereo partly drawn) [Compound I-28, 2-((1-(4-hydroxycyclohexyl)-1H-pyrazol-4-yl)amino)-4-(((1r,4r)-4-morpholinocyclohexyl)amino)quinazoline-6-carbonitrile]	≤ 5000	≤ 500	≤ 500
OCC#Cc1ccc2ncnc(N[C@H]3CC[C@H](N4CCOCC4)CC3)c2c1 [Compound I-30, 3-(4-(((1r,4r)-4-morpholinocyclohexyl)amino)quinazolin-6-yl)prop-2-yn-1-ol]	≤ 5000	≤ 500	≤ 500

Further lines, results first:

IC50 (IRAK4) [nM]	IC50 [1] [nM]	IC50 [2] [nM]	SMILES
≤ 5000	≤ 500	≤ 500	CCc1ccc2ncnc(N[C@H]3CC[C@H](N4CCC5(CC4)CC5)CC3)c2c1 [Compound I-39, N-((1r,4r)-4-(6-azaspiro[2.5]octan-6-yl)cyclohexyl)-6-ethyl-quinazolin-4-amine]
≤ 5000	500 to 5000	≤ 500	OCCc1ccc2ncnc(N[C@H]3CC[C@H](N4CCOCC4)CC3)c2c1 [Compound I-40, 2-(4-(((1r,4r)-4-morpholinocyclohexyl)amino)quinazolin-6-yl)ethanol]
≤ 5000	500 to 5000	≤ 500	CN(C)[C@H]1CC[C@H](Nc2ncnc3ccc(CC#N)cc23)CC1 [Compound I-53, 2-(4-(((1r,4r)-4-(dimethylamino)cyclohexyl)amino)quinazolin-6-yl)acetonitrile]
≤ 5000	500 to 5000	≤ 500	c1nc(O[C@H]2CC[C@H](N3CCOCC3)CC2)c2c3c(ccc2n1)CCC3 [Compound I-31, 4-((1r,4r)-4-((8,9-dihydro-7H-cyclopenta[f]quinazolin-1-yl)oxy)cyclohexyl)morpholine]
≤ 5000	≤ 500	≤ 500	N#CCc1ccc2ncnc(N[C@H]3CC[C@H](N4CCC5(CC4)COC5)CC3)c2c1 [Compound I-58, 2-(4-(((1r,4r)-4-(2-oxa-7-azaspiro[3.5]nonan-7-yl)cyclohexyl)-amino)quinazolin-6-yl)acetonitrile]
≤ 5000	≤ 500	500 to 5000	Clc1ccc2ncnc(N[C@H]3CC[C@H](N4CCC5(CC4)CC5)CC3)c2c1 [Compound I-36, N-((1r,4r)-4-(6-azaspiro[2.5]octan-6-yl)cyclohexyl)-6-chloro-quinazolin-4-amine]
≤ 5000	≤ 500	≤ 500	OCC#Cc1ccc2ncnc(N[C@H]3CC[C@H](N4CCC5(CC4)CC5)CC3)c2c1 [Compound I-44, 3-(4-(((1r,4r)-4-(6-azaspiro[2.5]octan-6-yl)cyclohexyl)amino)-quinazolin-6-yl)prop-2-yn-1-ol]
≤ 5000	≤ 500	≤ 500	Cc1cc(Nc2nc(N[C@H]3CC[C@H](N4CCOCC4)CC3)c3cc(Br)ccc3n2)sn1 [Compound I-56, 6-bromo-N2-(3-methylisothiazol-5-yl)-N4-((1r,4r)-4-morpholin-ocyclohexyl)quinazoline-2,4-diamine]
